Experimental findings from patent US10682319B2, “Necrosis inhibitors” (National Institute of Biological Sciences, Beijing, priority 2014, dated 2020) are described below.

Each structure is given as a SMILES string. Like-named read-outs stand apart in the source and are kept apart here.

For the assay, the system named is HT-29 cells. Kind of assay: Necrosis assay (TNF-α/Smac mimetic/z-VAD induced necrosis, cell viability by ATP level). It counts as cell-based. To be noted: HT-29, TNF-α + Smac mimetic + z-VAD, 24 hrs, ATP level, read-out: EC50 (inhibition of necrosis in HT-29 cells). The method, then: HT-29 cells were cultured in McCoy's 5 A culture medium (Invitrogen). On day one, HT-29 cells were plated in 96-well assay plates at density of 2,500-3,500 cells per well. On day two, necrosis were induced by adding 20 ng/ml TNF-α (T), 100 nM Smac mimetic (S), and […] z-VAD (Z). At the same time, […] compound from a chemical library of ˜200,000 compounds was delivered into each well. After 24 hrs treatment, cell viability was determined by measuring ATP level using the CellTiter-Glo Luminescent Cell Viability Assay kit. A CellTiter-Glo Assay (Promega) was performed according to the manufacturer's instructions Luminescence was recorded with a PerkinElmer EnSpire Multimode Plate Reader. Survived cells were normalized to those cells treated with DMSO. Nec-1 was used as a positive control for screening necrosis inhibitors. Data are represented as mean±standard deviation of duplicates
Dose-dependent inhibition of necrosis by the compounds in HT-29 cells were determined by measuring ATP levels as described above.

The mark [1] stands for this setting: Homo sapiens, HT-29, 24 h, values given as ranges in uM.

The term EC50 denotes the concentration giving half of the maximal effect. Consider `CN(Cc1ccccc1F)C(=O)C1CC1` [Compound 62, N-(2-fluorobenzyl)-N-methylcyclopropanecarboxamide], for which the EC50 under setting [1] lay in the range of 1 to 100 µM.
`CCC(C)(C)C(=O)N(C)Cc1ccc(F)cc1F` [Compound 24, N-(2,4-difluorobenzyl)-N,2,2-trimethylbutanamide]: the EC50 (values given as ranges in nM) is 0.001 to 1 µM.
Consider `CCC(C)(C)C(=O)N(O)Cc1cc(F)c(F)cc1F` [Compound 98, N-hydroxy-2,2-dimethyl-N-(2,4,5-trifluorobenzyl)butanamide], for which the EC50 (values given as ranges in nM) lay within 0.001 to 1 µM.
Turning to `CCC(C)(C)C(=O)N(O)C(CO)c1ccccc1` (centres unmarked) [Compound 150], the EC50 under setting [1] lay in the range of 1 to 100 µM.
In the case of `CCC(C)(C)C(=O)N(C)Cc1cc(F)ccc1F` [Compound 25, N-(2,5-difluorobenzyl)-N,2,2-trimethylbutanamide], the EC50 (values given as ranges in nM) lay in the range of 0.001 to 1 µM.
For the compound `CC1CCCCN1C(=O)N(C)Cc1cc(F)cc(F)c1F` (centres unmarked) [Compound 117, N,2-dimethyl-N-(2,3,5-trifluorobenzyl)piperidine-1-carboxamide], the EC50 under setting [1] lay in the range of 1 to 10 µM.
For the compound `CC(F)(F)C(C)(C)C(=O)N(O)Cc1ccc(F)c(F)c1` [Compound S11], under setting [1], the EC50 was 1 to 100 µM.
As for `CCC(C)(C)C(=O)N(O)CC1CCCCC1` [Compound 141], the EC50 under setting [1] was in the range of 1 to 100 µM.
For `CCC(C)(C)C(=O)N(Cc1cc(F)c(F)c(F)c1)OC` [Compound 134], the EC50 under setting [1] fell in the range of 1 to 100 µM.
Regarding `CCC(C)(C)C(=O)N(C)Cc1ccc(C)s1` [Compound 42, N,2,2-trimethyl-N-((5-methylthiophen-2-yl)methyl)butanamide], the EC50 (values given as ranges in nM) lay within 0.001 to 1 µM.
Consider `CON(Cc1ccc(F)cc1F)C(=O)C(C)(C)C(C)(F)F` [Compound S16], for which, under setting [1], the EC50 fell in the range of 1 to 100 µM.
As to `CCC(C)(C)C(=O)N(C)Cc1cccnc1OC` [Compound 37, N-((2-methoxypyridin-3-yl)methyl)-N,2,2-trimethylbutanamide], under setting [1], the EC50 was 1 to 100 µM.
For `CCC(C)(C)C(=O)N(C)Cc1ccncc1` [Compound 34, N,2,2-trimethyl-N-(pyridin-4-ylmethyl)butanamide], the EC50 under setting [1] fell in the range of 1 to 100 µM.
Turning to `CCC(C)(C)C(=O)N(C)Cc1cc(F)ccc1C#N` [Compound 57, N-(2-cyano-5-fluorobenzyl)-N,2,2-trimethylbutanamide], the EC50 under setting [1] lay within 1 to 10 µM.
In the case of `CCC(C)(C)C(=O)NCc1ccccc1C(F)(F)F` [Compound 4, 2,2-dimethyl-N-(2-(trifluoromethyl)benzyl)butanamide], the EC50 under setting [1] fell in the range of 1 to 10 µM.
Same read-out and setting: the same measure for `CCC(C)(C)C(=O)N(C)Cc1cccc(O)c1` [Compound 21, N-(3-hydroxybenzyl)-N,2,2-trimethylbutanamide]: 1 to 100 µM.
`CCC(C)(C)C(=O)N(C)Cc1cccnc1` [Compound 35, N,2,2-trimethyl-N-(pyridin-3-ylmethyl)butanamide]: under setting [1], the concentration giving a half-maximal response (EC50) is 1 to 10 µM.
Take `CCC(C)(C)C(=O)N(C)Cc1cccc(C#N)c1` [Compound 17, N-(3-cyanobenzyl)-N,2,2-trimethylbutanamide]: the EC50 (values given as ranges in nM) is 0.001 to 1 µM.
With `CCC(C)(C)C(=O)NCc1ccccc1Br` [Compound 3, N-(2-bromobenzyl)-2,2-dimethylbutanamide], the EC50 under setting [1] was in the range of 1 to 10 µM.
With `CCC(C)(C)C(=O)N(C)Cc1ccc(F)cc1` [Compound S7, N-(4-fluorobenzyl)-N,2,2-trimethylbutanamide], the EC50 under setting [1] lay in the range of 1 to 10 µM.
The same measure, in the same setting: the same measure for `CCC(C)(C)C(=O)N[C@@H](CC(=O)NCCc1ccccc1)c1ccccc1` [Compound 108, (S)-2,2-dimethyl-N-(3-oxo-3-(phenethylamino)-1-phenylpropyl)butanamide]: 1 to 100 µM; for `CCN(Cc1ccccc1F)C(=O)C(C)(C)CC` [Compound 10, N-ethyl-N-(2-fluorobenzyl)-2,2-dimethylbutanamide]: 1 to 10 µM.
Turning to `CCC(C)(C)C(=O)N(C)Cc1cccc(Cl)c1` [Compound 18, N-(3-chlorobenzyl)-N,2,2-trimethylbutanamide], the EC50 (values given as ranges in nM) lay in the range of 0.001 to 1 µM.
Still for that read-out and setting: the same measure for `CN(Cc1cc(F)cc(F)c1F)C(=O)C1(C(F)(F)F)CCC1` [Compound 84, N-methyl-N-(2,3,5-trifluorobenzyl)-1-(trifluoromethyl)cyclobutanecarboxamide]: 0.001 to 1 µM.
With `CC(F)(F)C(C)(C)C(=O)N(O)Cc1cc(F)c(F)cc1F` [Compound S12], the EC50 under setting [1] lay in the range of 1 to 100 µM.
For the compound `CCC(C)(C)C(=O)N(C)Cc1ccc(N2CCCCC2)c([N+](=O)[O-])c1` [Compound 30, N,2,2-trimethyl-N-(3-nitro-4-(piperidin-1-yl)benzyl)butanamide], the EC50 under setting [1] lay in the range of 1 to 100 µM.
Consider `CCC(C)(C)C(=O)NC(C)c1ccccc1` (centres unmarked) [Compound 52, 2,2-dimethyl-N-(1-phenylethyl)butanamide], for which the EC50 under setting [1] lay in the range of 1 to 100 µM.
As for `CC(F)(F)C(C)(C)C(=O)N(O)Cc1ccc(F)cc1` [Compound S9], the EC50 under setting [1] lay in the range of 1 to 100 µM.
Take `CN(Cc1cc(F)c(F)c(F)c1)C(=O)C1C(C)(C)C1(C)C` [Compound 81, N,2,2,3,3-pentamethyl-N-(3,4,5-trifluorobenzyl)-cyclopropanecarboxamide]: the EC50 under setting [1] fell in the range of 1 to 100 µM.
On to `CCC(C)(C)C(=O)N(C)Cc1cc(C)cc(C)c1` [Compound 32, N-(3,5-dimethylbenzyl)-N,2,2-trimethylbutanamide], for which the EC50 under setting [1] is 1 to 100 µM.
On to `CON(Cc1ccc(F)cc1)C(=O)C(C)(C)C(C)(F)F` [Compound S15], for which the EC50 under setting [1] was 1 to 100 µM.
Regarding `CCC(C)(C)C(=O)N(Cc1cc(F)cc(F)c1F)OC` [Compound 135], under setting [1], the EC50 fell in the range of 1 to 100 µM.
As for `CCC(C)(C)C(=O)N(C)Cc1cccs1` [Compound 40, N,2,2-trimethyl-N-(thiophen-2-ylmethyl)butanamide], the EC50 (values given as ranges in nM) lay in the range of 0.001 to 1 µM.
As for `CN(Cc1cc(F)cc(F)c1F)S(=O)(=O)C1CCCCC1` [Compound 79, N-methyl-N-(2,3,5-trifluorobenzyl)cyclohexanesulfonamide], under setting [1], the EC50 lay within 1 to 100 µM.
With `CN(Cc1cc(F)cc(F)c1F)C(=O)C1(c2ccccc2)CCCC1` [Compound 87, N-methyl-1-phenyl-N-(2,3,5-trifluorobenzyl)cyclopentanecarboxamide], under setting [1], the EC50 lay in the range of 1 to 100 µM.
Take `CCC(C)(C)C(=O)NCc1ccccc1F` [Compound 1, N-(2-fluorobenzyl)-2,2-dimethylbutanamide]: the EC50 under setting [1] fell in the range of 1 to 10 µM.
Take `CCC(C)(C)C(=O)N[C@@H](CC(=O)Nc1ccccc1)c1ccccc1` [Compound 106, (S)-2,2-dimethyl-N-(3-oxo-1-phenyl-3-(phenylamino)propyl)butanamide]: the EC50 under setting [1] fell in the range of 1 to 100 µM.
Take `CCC(C)(C)C(=O)N(C)Cc1ccc(OC)cc1F` [Compound 28, N-(2-fluoro-4-methoxybenzyl)-N,2,2-trimethylbutanamide]: the EC50 (values given as ranges in nM) fell in the range of 0.001 to 1 µM.
As for `CCC(C)(C)C(=O)N(O)Cc1cccs1` [Compound 136], the EC50 under setting [1] fell in the range of 1 to 100 µM.
In the case of `CCC(C)(C)C(=O)NCc1cccc(F)c1` [Compound 5, N-(3-fluorobenzyl)-2,2-dimethylbutanamide], the EC50 under setting [1] was in the range of 1 to 10 µM.
Turning to `CCC(C)(C)C(=O)N(C)Cc1cc(C)c(C)s1` [Compound 128, N-((4,5-dimethylthiophen-2-yl)methyl)-N,2,2-trimethylbutanamide], where the note is “values given as ranges in nM”, the EC50 was in the range of 0.001 to 1 µM.
Regarding `CCC(C)(CC)C(=O)N(C)Cc1cc(F)c(F)c(F)c1` [Compound 72, 2-ethyl-N,2-dimethyl-N-(3,4,5-trifluorobenzyl)butanamide], the EC50 under setting [1] is 1 to 10 µM.
In the case of `CCC(C)(C)C(=O)N(CCCOC)Cc1cccc(F)c1` [Compound 63, N-(3-fluorobenzyl)-N-(3-methoxypropyl)-2,2-dimethylbutanamide], the EC50 under setting [1] fell in the range of 1 to 100 µM.
`CCC(C)(C)C(=O)N(C)Cc1ccccc1` [Compound 90, N-benzyl-N,2,2-trimethylbutanamide]: the EC50 (values given as ranges in nM) was in the range of 0.001 to 1 µM.
`COC(C)(C)C(=O)N(C)Cc1cc(F)cc(F)c1F` [Compound 67, 2-methoxy-N,2-dimethyl-N-(2,3,5-trifluorobenzyl)propanamide]: the EC50 under setting [1] was in the range of 1 to 10 µM.
In the case of `CCC(C)(C)C(=O)N(O)Cc1cc(F)cc(F)c1F` [Compound 93, N-hydroxy-2,2-dimethyl-N-(2,3,5-trifluorobenzyl)butanamide], under “values given as ranges in nM”, the EC50 was in the range of 0.001 to 1 µM.
With `CN(Cc1ccccc1F)C(=O)NC1CCCCC1` [Compound 113, 3-cyclohexyl-1-(2-fluorobenzyl)-1-methylurea], the EC50 under setting [1] was in the range of 1 to 100 µM.
As for `CCC(C)(C)C(=O)NCc1ccccc1` [Compound 58, N-benzyl-2,2-dimethylbutanamide], the EC50 (values given as ranges in nM) is 0.001 to 1 µM.
In the case of `CN(Cc1cc(F)c(F)c(F)c1)C(=O)C(C)(C)C` [Compound 69, N-methyl-N-(3,4,5-trifluorobenzyl)pivalamide], the EC50 under setting [1] was in the range of 1 to 10 µM.
As to `CCC(C)(C)C(=O)N(C)Cc1cc(F)cc(F)c1` [Compound 26, N-(3,5-difluorobenzyl)-N,2,2-trimethylbutanamide], the EC50 (values given as ranges in nM) is 0.001 to 1 µM.
In the case of `CCC(C)(C)C(=O)N(C)Cc1sccc1C` [Compound 41, N,2,2-trimethyl-N-((3-methylthiophen-2-yl)methyl)butanamide], under setting [1], the EC50 was 1 to 10 µM.
As for `CCC(C)(C)C(=O)N(Cc1ccc(F)cc1F)OC` [Compound 131], the half-maximal effective concentration (EC50) under setting [1] was 1 to 100 µM.
As for `CCC(C)(C)C(=O)N(C)CC1CCCCC1` [Compound 39, N-(cyclohexylmethyl)-N,2,2-trimethylbutanamide], the EC50 (values given as ranges in nM) lay in the range of 0.001 to 1 µM.
